Legend:
Format in all cases: functional, cell-based
[1] = test system: A549; experiment: Cytotoxicity against human A549 cells after 48 hrs by MTT assay; details: A549, 48 h
[2] = test system: DU-145; experiment: Cytotoxicity against human DU145 cells after 48 hrs by MTT assay; details: DU-145, 48 h
[3] = test system: HeLa; experiment: Cytotoxicity against human HeLa cells after 48 hrs by MTT assay

CCOC(=O)c1c(-c2c(Cl)c3cc(C)ccc3oc2=O)nn(-c2ccccc2)c1C(=O)OCC
IC50 [1]: 108 µM
IC50 [2]: 50 µM
IC50 [3]: 228 µM

CCOC(=O)c1c(-c2c(Cl)c3cc(C)ccc3oc2=O)nn(-c2cccc(Cl)c2)c1C(=O)OCC
IC50 [1]: 128 µM
IC50 [2]: 156 µM
IC50 [3]: 125 µM

Cc1nn(-c2ccccc2)c2c1c(=O)oc1ccccc12
IC50 [1]: 119 µM
IC50 [2]: 120 µM
IC50 [3]: 120 µM

CCOC(=O)c1c(-c2cc3c(ccc4ccccc43)oc2=O)nn(-c2cccc(C)c2)c1C(=O)OCC
IC50 [1]: 179 µM
IC50 [2]: 259 µM
IC50 [3]: 155 µM

Cc1cccc(-n2ncc3c(=O)oc4ccccc4c32)c1
IC50 [1]: 160 µM
IC50 [2]: 100 µM
IC50 [3]: 135 µM

CCOC(=O)c1c(-c2cc3ccccc3oc2=O)nn(-c2ccc(OC)cc2)c1C(=O)OCC
IC50 [1]: 86 µM
IC50 [2]: 39 µM
IC50 [3]: 90 µM

Cc1nn(-c2ccc(Cl)cc2)c2c1c(=O)oc1ccccc12
IC50 [1]: 136 µM
IC50 [2]: 121 µM
IC50 [3]: 83 µM

CCOC(=O)c1c(-c2cc3ccccc3oc2=O)nn(-c2ccc(Br)cc2)c1C(=O)OCC
IC50 [1]: 100 µM
IC50 [2]: 61 µM
IC50 [3]: 250 µM

COc1ccc2oc(=O)c3c(C)nn(-c4ccccc4)c3c2c1
IC50 [1]: 150 µM
IC50 [2]: 150 µM
IC50 [3]: 115 µM

CCOC(=O)c1c(-c2cc3ccccc3oc2=O)nn(-c2ccc(Cl)cc2)c1C(=O)OCC
IC50 [1]: 35 µM
IC50 [2]: 26 µM
IC50 [3]: 87 µM

CCOC(=O)c1c(-c2cc3cc4c(cc3oc2=O)OC(C)(C)CC4)nn(-c2ccccc2)c1C(=O)OCC
IC50 [1]: 189 µM
IC50 [2]: 209 µM
IC50 [3]: 125 µM

COC(=O)c1c(-c2cc3ccccc3oc2=O)nn(-c2ccccc2)c1C(=O)OC
IC50 [1]: 28 µM
IC50 [2]: 30 µM
IC50 [3]: 35 µM

CCOC(=O)c1c(-c2cc3c(ccc4ccccc43)oc2=O)nn(-c2ccccc2)c1C(=O)OCC
IC50 [1]: 136 µM
IC50 [2]: 80 µM
IC50 [3]: 120 µM

CCOC(=O)c1c(-c2cc3ccccc3oc2=O)nn(-c2cccc(F)c2)c1C(=O)OCC
IC50 [1]: 59 µM
IC50 [2]: 32 µM
IC50 [3]: 68 µM

Cc1ccc2oc(=O)c3cnn(-c4cccc(Cl)c4)c3c2c1
IC50 [1]: 150 µM
IC50 [2]: 105 µM
IC50 [3]: 120 µM

CCOC(=O)c1c(-c2cc3cc4c(cc3oc2=O)OC(C)(C)CC4)nn(-c2cccc(Cl)c2)c1C(=O)OCC
IC50 [1]: 146 µM
IC50 [2]: 74 µM
IC50 [3]: 145 µM

CCOC(=O)c1c(-c2cc3cc(OC)ccc3oc2=O)nn(-c2cccc(C)c2)c1C(=O)OCC
IC50 [1]: 102 µM
IC50 [2]: 31 µM
IC50 [3]: 155 µM

CCOC(=O)c1c(-c2cc3ccc(OC)cc3oc2=O)nn(-c2cccc(Cl)c2)c1C(=O)OCC
IC50 [1]: 221 µM
IC50 [2]: 38 µM
IC50 [3]: 205 µM

CCOC(=O)c1c(-c2cc3ccccc3oc2=O)nn(-c2ccc(C)c(C)c2)c1C(=O)OCC
IC50 [1]: 52 µM
IC50 [2]: 40 µM
IC50 [3]: 50 µM

CCOC(=O)c1c(-c2c(Cl)c3ccccc3oc2=O)nn(-c2cccc(Cl)c2)c1C(=O)OCC
IC50 [1]: 38 µM
IC50 [2]: 24 µM
IC50 [3]: 40 µM

CCOC(=O)c1c(-c2cc3c(ccc4ccccc43)oc2=O)nn(-c2cccc(Cl)c2)c1C(=O)OCC
IC50 [1]: 165 µM
IC50 [2]: 257 µM
IC50 [3]: 170 µM

Cc1nn(-c2ccc(Br)cc2)c2c1c(=O)oc1ccccc12
IC50 [1]: 130 µM
IC50 [2]: 53 µM
IC50 [3]: 130 µM

O=c1oc2ccccc2c2c1cnn2-c1cccc(Cl)c1
IC50 [1]: 110 µM
IC50 [2]: 60 µM
IC50 [3]: 110 µM

CCOC(=O)c1c(-c2cc3ccccc3oc2=O)nn(-c2cccc(C)c2)c1C(=O)OCC
IC50 [1]: 52 µM
IC50 [2]: 47 µM
IC50 [3]: 245 µM

CCOC(=O)c1c(-c2cc3cc4c(cc3oc2=O)OC(C)(C)CC4)nn(-c2cccc(C)c2)c1C(=O)OCC
IC50 [1]: 175 µM
IC50 [2]: 67 µM
IC50 [3]: 105 µM

Cc1nn(-c2cccc(Cl)c2)c2c1c(=O)oc1ccccc12
IC50 [1]: 85 µM
IC50 [2]: 139 µM
IC50 [3]: 175 µM

COC(=O)Nc1nc2cc(C(=O)c3cccs3)ccc2[nH]1 [NOCODAZOLE]
IC50 [1]: 2.31 µM
IC50 [2]: 2.8 µM
IC50 [3]: 0.71 µM

CCOC(=O)c1c(-c2c(Cl)c3ccccc3oc2=O)nn(-c2cccc(C)c2)c1C(=O)OCC
IC50 [1]: 36 µM
IC50 [2]: 32 µM
IC50 [3]: 30 µM

CCOC(=O)c1c(-c2cc3ccc(OCC=C(C)C)cc3oc2=O)nn(-c2cccc(C)c2)c1C(=O)OCC
IC50 [1]: 178 µM
IC50 [2]: 125 µM
IC50 [3]: 150 µM

CCOC(=O)c1c(-c2c(Cl)c3ccccc3oc2=O)nn(-c2ccc(Br)cc2)c1C(=O)OCC
IC50 [1]: 30 µM
IC50 [2]: 32 µM
IC50 [3]: 500 µM

Cc1cccc(-n2nc(C)c3c(=O)oc4ccccc4c32)c1
IC50 [1]: 43 µM
IC50 [2]: 150 µM
IC50 [3]: 154 µM

CCOC(=O)c1c(-c2c(Cl)c3ccccc3oc2=O)nn(-c2ccc(OC)cc2)c1C(=O)OCC
IC50 [1]: 18 µM
IC50 [2]: 25 µM
IC50 [3]: 27 µM

COc1cccc2c1C(=O)c1c(O)c3c(c(O)c1C2=O)C[C@@](O)(C(=O)CO)C[C@@H]3O[C@H]1C[C@H](N)[C@H](O)[C@H](C)O1 [DOXORUBICIN]
IC50 [1]: 4 µM
IC50 [2]: 6 µM
IC50 [3]: 4.1 µM

O=c1oc2ccccc2c2c1cnn2-c1ccccc1
IC50 [1]: 175 µM
IC50 [2]: 125 µM
IC50 [3]: 165 µM

CCOC(=O)c1c(-c2c(Cl)c3ccccc3oc2=O)nn(-c2ccccc2)c1C(=O)OCC
IC50 [1]: 34 µM
IC50 [2]: 48 µM
IC50 [3]: 100 µM

Cc1ccc2oc(=O)c3cnn(-c4ccccc4)c3c2c1
IC50 [1]: 125 µM
IC50 [2]: 110 µM
IC50 [3]: 192 µM

CCOC(=O)c1c(-c2cc3cc(OC)ccc3oc2=O)nn(-c2cccc(Cl)c2)c1C(=O)OCC
IC50 [1]: 148 µM
IC50 [2]: 29 µM
IC50 [3]: 160 µM

CCOC(=O)c1c(-c2cc3ccc(OC)cc3oc2=O)nn(-c2ccccc2)c1C(=O)OCC
IC50 [1]: 132 µM
IC50 [2]: 33 µM
IC50 [3]: 140 µM

CCOC(=O)c1c(-c2cc3ccc(OCC=C(C)C)cc3oc2=O)nn(-c2ccccc2)c1C(=O)OCC
IC50 [1]: 136 µM
IC50 [2]: 75 µM
IC50 [3]: 130 µM

COc1ccc(-n2nc(C)c3c(=O)oc4ccccc4c32)cc1
IC50 [1]: 27 µM
IC50 [2]: 175 µM
IC50 [3]: 190 µM

COC(=O)c1c(-c2cc3ccccc3oc2=O)nn(-c2cccc(F)c2)c1C(=O)OC
IC50 [1]: 50 µM
IC50 [2]: 37 µM
IC50 [3]: 76 µM

COC(=O)c1c(-c2cc3ccccc3oc2=O)nn(-c2cccc(C)c2)c1C(=O)OC
IC50 [1]: 51 µM
IC50 [2]: 35 µM
IC50 [3]: 45 µM

CCOC(=O)c1c(-c2cc3ccccc3oc2=O)nn(-c2cccc(Cl)c2)c1C(=O)OCC
IC50 [1]: 28 µM
IC50 [2]: 35 µM
IC50 [3]: 22 µM

CCOC(=O)c1c(-c2cc3ccc(OCC=C(C)C)cc3oc2=O)nn(-c2cccc(Cl)c2)c1C(=O)OCC
IC50 [1]: 163 µM
IC50 [2]: 139 µM
IC50 [3]: 110 µM

CCOC(=O)c1c(-c2cc3ccc(OC)cc3oc2=O)nn(-c2cccc(C)c2)c1C(=O)OCC
IC50 [1]: 171 µM
IC50 [2]: 35 µM
IC50 [3]: 35 µM

Cc1nn(-c2cccc(F)c2)c2c1c(=O)oc1ccccc12
IC50 [1]: 125 µM
IC50 [2]: 134 µM
IC50 [3]: 276 µM

CCOC(=O)c1c(-c2cc3ccccc3oc2=O)nn(-c2ccccc2)c1C(=O)OCC
IC50 [1]: 100 µM
IC50 [2]: 57 µM
IC50 [3]: 100 µM

CCOC(=O)c1c(-c2cc3cc(OC)ccc3oc2=O)nn(-c2ccccc2)c1C(=O)OCC
IC50 [1]: 35 µM
IC50 [2]: 27 µM
IC50 [3]: 145 µM

COC(=O)c1c(-c2cc3ccccc3oc2=O)nn(-c2ccc(Br)cc2)c1C(=O)OC
IC50 [1]: 165 µM
IC50 [2]: 93 µM
IC50 [3]: 120 µM

CCOC(=O)c1c(-c2c(Cl)c3cc(C)ccc3oc2=O)nn(-c2cccc(C)c2)c1C(=O)OCC
IC50 [1]: 115 µM
IC50 [2]: 103 µM
IC50 [3]: 115 µM

Cc1cccc(-n2ncc3c(=O)oc4ccc(C)cc4c32)c1
IC50 [1]: 145 µM
IC50 [2]: 130 µM
IC50 [3]: 150 µM

COC(=O)c1c(-c2cc3ccccc3oc2=O)nn(-c2cccc(Cl)c2)c1C(=O)OC
IC50 [1]: 30 µM
IC50 [2]: 32 µM
IC50 [3]: 76 µM

Reference: ChEMBL document CHEMBL2401659, “Synthesis, anticancer activity and photophysical properties of novel substituted 2-oxo-2H-chromenylpyrazolecarboxylates” (Eur J Med Chem, 2013)
